What all share (format): cell-based
The target in one test is T1, Y1R (Homo sapiens, UniProt P25929).
T1 sequence (P25929 1-384): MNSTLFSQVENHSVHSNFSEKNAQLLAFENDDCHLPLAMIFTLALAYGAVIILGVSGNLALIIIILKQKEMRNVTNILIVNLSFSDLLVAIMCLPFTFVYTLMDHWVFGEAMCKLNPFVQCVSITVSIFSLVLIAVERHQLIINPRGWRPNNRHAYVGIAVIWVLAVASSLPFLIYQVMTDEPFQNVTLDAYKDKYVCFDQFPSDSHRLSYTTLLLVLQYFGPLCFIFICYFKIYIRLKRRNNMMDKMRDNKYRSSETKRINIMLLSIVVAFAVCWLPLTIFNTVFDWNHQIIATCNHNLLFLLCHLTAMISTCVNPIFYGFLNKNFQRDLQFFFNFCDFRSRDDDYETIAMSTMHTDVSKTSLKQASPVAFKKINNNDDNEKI
In words: CaFlux Assay (FLIPR), Y1R.

A further test deals with Y4R (Homo sapiens, UniProt P50391). The experiment in a line: CaFlux Assay (FLIPR), Y4R.
The next test has as its target T2, Y5R (Homo sapiens, UniProt Q15761).
T2 sequence (Q15761 1-445): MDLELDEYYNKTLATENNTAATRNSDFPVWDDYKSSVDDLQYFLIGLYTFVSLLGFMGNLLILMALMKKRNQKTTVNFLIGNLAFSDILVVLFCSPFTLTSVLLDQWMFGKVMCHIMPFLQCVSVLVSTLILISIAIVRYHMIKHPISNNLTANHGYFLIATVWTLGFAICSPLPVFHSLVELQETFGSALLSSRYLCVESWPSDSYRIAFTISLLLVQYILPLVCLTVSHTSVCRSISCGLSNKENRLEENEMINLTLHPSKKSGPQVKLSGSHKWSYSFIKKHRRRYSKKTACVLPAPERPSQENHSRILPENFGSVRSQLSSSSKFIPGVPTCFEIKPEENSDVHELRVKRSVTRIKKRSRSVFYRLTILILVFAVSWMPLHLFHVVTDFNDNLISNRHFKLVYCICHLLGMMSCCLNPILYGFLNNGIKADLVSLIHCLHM
In words: CaFlux Assay (FLIPR), Y5R.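 On Emax: percent of the maximal response of the positive control agonist.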 The following applies: for Emax: read-out: Y5R FLIPR, percentage in parentheses under the EC50.

Test [1] addresses T3, hNPY2R (Homo sapiens, UniProt P49146).
T3 sequence (P49146 1-381): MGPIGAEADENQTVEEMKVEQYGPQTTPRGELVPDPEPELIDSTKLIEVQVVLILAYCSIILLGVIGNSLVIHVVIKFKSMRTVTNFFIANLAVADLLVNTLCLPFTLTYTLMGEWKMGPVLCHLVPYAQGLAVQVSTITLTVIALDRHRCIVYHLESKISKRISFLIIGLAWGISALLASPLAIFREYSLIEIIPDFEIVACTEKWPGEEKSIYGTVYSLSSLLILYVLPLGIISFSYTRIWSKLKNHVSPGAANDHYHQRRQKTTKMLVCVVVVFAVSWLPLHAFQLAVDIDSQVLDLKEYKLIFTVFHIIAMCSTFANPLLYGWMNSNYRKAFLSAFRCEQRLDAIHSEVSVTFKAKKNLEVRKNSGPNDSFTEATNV
In words: cAMP Agonist Assay, HEK293/hNPY2R cells. Details: expressed in transfected cells; host or cells: HEK293/hNPY2R (G418 selection).
Experimental: On the first day, medium was discarded, and the monolayer cells were washed with 10 mL PBS per flask (T225). […] The flask was gently tapped and the cell suspension was pooled. Each flask was rinsed with 10 mL plating medium and centrifuged at 1000 rpm for 5 min. The suspension was pooled and counted. The suspension was resuspended in plating medium at a density of 2.0×10^5 cells/mL for HEK293/hNPY2R. 50 microliters of cells (HEK293/hNPY2R-10,000 cells/well) were transferred into the 384-well plate using Multi-drop dispenser. The plates were incubated at 37° C. overnight. […] The media and reagents were allowed to come to room temperature. Before the dilutions were prepared, the stock solution of stimulating compound in dimethyl sulphoxide (DMSO, Sigma, cat #D2650) was allowed to warm up to 32 C for 5-10 min. […] The cell medium was tapped off with a gentle inversion of the cell plate on a paper towel. 50 μL of stimulation medium was placed per well (each concentration done in four replicates). The plates were incubated at room temperature for 30 min, and the cells were checked under a microscope for toxicity. After 30 minutes of treatment, the stimulation media was discarded and 50 mL/well of Assay Lysis Buffer (provided in the Tropix kit) was added. The plates were incubated for 45 min@37° C. 20 μL of the lysate was transferred from stimulation plates into the pre-coated antibody plates (384-well) from the Tropix kit. 10 μL of AP conjugate and 20 μL of anti-cAMP antibody was added. The plates were incubated at room temperature while shaking for 1 hour. The plates were then washed 5 times with Wash Buffer, 70 μL per well for each wash. The plates were tapped to dry. 30 μL/well of CSPD/Saphire-II RTU substrate/enhancer solution was added and incubated for 45 min @ RT (shake). Signal for 1 sec/well in a Luminometer.

The target in test [2] is T3, hNPY2R. In words: CaFlux Assay (FLIPR), Y2R. Also on record: expressed in transfected cells; host or cells: HEK-293 stably expressing G protein chimera Gaqi9.
Experimental: Hek-293 cells were stably transfected with the G protein chimera Gaqi9 and the hygromycin-B resistance gene were further transfected with the human NPY2 receptor and G418 antibiotic selection. Following selection in both hygromycin-B and G418, individual clones were assayed for their response to PYY. The transfected cells were cultured in DMEM medium supplemented with 10% fetal bovine serum, 50 μg/mL hygromycin-B 2 mM glutamine, 100 U/mL penicillin, 100 μg/mL streptomycin and 250 μg/mL G418. Cells are harvested with trypsin-EDTA and counted using ViaCount reagent. The cell suspension volume is adjusted to 4.8×10^5 cells/mL with complete growth media. Aliquots of 25 μL are dispensed into 384 well Poly-D Lysine coated black/clear microplates (Falcon) and the microplates were placed in a 37° C. CO2 incubator overnight. Loading Buffer (Calcium-3 Assay Kit, Molecular Devices) was prepared by dissolving the contents of one vial (Express Kit) into 1000 mL Hank's Balanced Salt Solution containing 20 mM HEPES and 5 mM probenecid. Aliquots of 25 μL of diluted dye were dispensed into the cell plates and the plates are then incubated for 1 hour at 37° C. During the incubation, test compounds were prepared at 3.5× the desired concentration in HBSS (20 mM HEPES)/0.05% BSA/1% DMSO and transferred to a 384 well plate for use on FLIPR. After incubation, both the cell and compound plates were brought to the FLIPR and 20 μL of the diluted compounds were transferred to the cell plates by the FLIPR. During the assay, fluorescence readings were taken simultaneously from all 384 wells of the cell plate every 1.5 seconds. Five readings were taken to establish a stable baseline, and then 20 μL of sample was rapidly (30 μL/sec) and simultaneously added to each well of the cell plate. The fluorescence was continuously monitored before, during and after sample addition for a total elapsed time of 100 seconds. Responses (increase in peak fluorescence) in each well following addition were determined. The initial fluorescence reading from each well, prior to ligand stimulation, was used as a zero baseline value for the data from that well. The responses are expressed as % of maximal response of the positive control.

Chain of Y4R (P50391 whole entry): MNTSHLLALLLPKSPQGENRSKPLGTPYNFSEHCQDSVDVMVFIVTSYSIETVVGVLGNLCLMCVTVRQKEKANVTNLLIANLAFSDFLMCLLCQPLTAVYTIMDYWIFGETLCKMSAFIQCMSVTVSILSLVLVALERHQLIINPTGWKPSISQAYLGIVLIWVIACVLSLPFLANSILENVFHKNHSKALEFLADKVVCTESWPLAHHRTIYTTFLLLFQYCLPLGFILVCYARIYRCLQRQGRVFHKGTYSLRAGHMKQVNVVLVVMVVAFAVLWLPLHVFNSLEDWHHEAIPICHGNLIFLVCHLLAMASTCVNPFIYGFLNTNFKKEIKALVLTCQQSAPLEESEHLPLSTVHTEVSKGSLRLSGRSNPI

Consider `CCCCCCCCCCCCCCCC(=O)NCCC(=O)N[C@@H](CCC(=O)NCCCC[C@H](NC(=O)[C@@H](N)[C@@H](C)CC)C(=O)N1CCN(c2ccc3ncn(CC(=O)N[C@@H](CCCNC(=N)N)C(=O)N[C@@H](Cc4c[nH]cn4)C(=O)N[C@@H](Cc4ccc(O)cc4)C(=O)N[C@@H](CC(C)C)C(=O)N[C@@H](CC(N)=O)C(=O)N[C@@H](Cc4c[nH]c5ccccc45)C(=O)N[C@H](C(=O)N[C@H](C(=O)N[C@@H](CCCNC(=N)N)C(=O)N[C@@H](CCC(N)=O)C(=O)N(C)[C@@H](CCCNC(=N)N)C(=O)N[C@@H](Cc4ccc(O)cc4)C(N)=O)[C@@H](C)O)C(C)C)c(=O)c3c2)CC1)C(=O)O` [Example 26], for which the EC50 – broadly, the concentration at which the effect is half-maximal – at Y1R is greater than 5000 nM; at Y4R, greater than 5000 nM; on Y5R, 129 nM; at hNPY2R [1], 0.15 nM; at hNPY2R [2] it was 0.045 nM. Besides, the Emax at Y5R stood at 70%.

For the compound `CCCCCCCCCCCCCCCC(=O)NCCOCCOCCOCCOCCC(=O)NCCCC[C@H](NC(=O)[C@@H](N)[C@@H](C)CC)C(=O)N1CCN(c2ccc3ncn(CC(=O)N[C@@H](CCCNC(=N)N)C(=O)N[C@@H](Cc4c[nH]cn4)C(=O)N[C@@H](Cc4ccc(O)cc4)C(=O)N[C@@H](CC(C)C)C(=O)N[C@@H](CC(N)=O)C(=O)N[C@@H](Cc4c[nH]c5ccccc45)C(=O)N[C@H](C(=O)N[C@H](C(=O)N[C@@H](CCCNC(=N)N)C(=O)N[C@@H](CCC(N)=O)C(=O)N(C)[C@@H](CCCNC(=N)N)C(=O)N[C@@H](Cc4ccc(O)cc4)C(N)=O)[C@@H](C)O)C(C)C)c(=O)c3c2)CC1` [Example 32], the EC50 on Y1R was greater than 5000 nM; at Y4R, greater than 5000 nM; at Y5R it was 973 nM; at hNPY2R [1] it was 0.19 nM; at hNPY2R [2] it was 0.26 nM. Moreover, the Emax on Y5R was 28%.

Consider `CCCCCCCCCCCCCCCC(=O)NCCCCCC(=O)N[C@H](C(=O)N[C@@H](CCCCN)C(=O)N1CCN(c2ccc3ncn(CC(=O)N[C@@H](CCCNC(=N)N)C(=O)N[C@@H](Cc4c[nH]cn4)C(=O)N[C@@H](Cc4ccc(O)cc4)C(=O)N[C@@H](CC(C)C)C(=O)N[C@@H](CC(N)=O)C(=O)N[C@@H](Cc4c[nH]c5ccccc45)C(=O)N[C@H](C(=O)N[C@H](C(=O)N[C@@H](CCCNC(=N)N)C(=O)N[C@@H](CCC(N)=O)C(=O)N(C)[C@@H](CCCNC(=N)N)C(=O)N[C@@H](Cc4ccc(O)cc4)C(N)=O)[C@@H](C)O)C(C)C)c(=O)c3c2)CC1)[C@@H](C)CC` [Example 16], for which the 50% effective concentration (EC50) at Y1R is greater than 5000 nM; on Y4R, 13700 nM; on Y5R it was 544 nM; on hNPY2R [1], 0.23 nM; on hNPY2R [2] it was 0.18 nM.

Consider `CCCCCCCCCCCCCCCCCCCC(=O)NCCOCCOCCOCCC(=O)NCCCC[C@H](NC(=O)[C@@H](N)[C@@H](C)CC)C(=O)N1CCN(c2ccc3ncn(CC(=O)N[C@@H](CCCNC(=N)N)C(=O)N[C@@H](Cc4c[nH]cn4)C(=O)N[C@@H](Cc4ccc(O)cc4)C(=O)N[C@@H](CC(C)C)C(=O)N[C@@H](CC(N)=O)C(=O)N[C@@H](Cc4c[nH]c5ccccc45)C(=O)N[C@H](C(=O)N[C@H](C(=O)N[C@@H](CCCNC(=N)N)C(=O)N[C@@H](CCC(N)=O)C(=O)N(C)[C@@H](CCCNC(=N)N)C(=O)N[C@@H](Cc4ccc(O)cc4)C(N)=O)[C@@H](C)O)C(C)C)c(=O)c3c2)CC1` [Example 35], for which the EC50 is greater than 5000 nM at Y1R; greater than 5000 nM on Y4R; 501 nM on Y5R; 0.11 nM on hNPY2R [1]; 1.02 nM on hNPY2R [2]. In addition, the Emax at Y5R turned out to be 65%.

Regarding `CCCCCCCC(=O)NCCCC[C@H](NC(=O)[C@@H](NC(C)=O)[C@@H](C)CC)C(=O)N1CCN(c2ccc3ncn(CC(=O)N[C@@H](CCCNC(=N)N)C(=O)N[C@@H](Cc4c[nH]cn4)C(=O)N[C@@H](Cc4ccc(O)cc4)C(=O)N[C@@H](CC(C)C)C(=O)N[C@@H](CC(N)=O)C(=O)N[C@@H](Cc4c[nH]c5ccccc45)C(=O)N[C@H](C(=O)N[C@H](C(=O)N[C@@H](CCCNC(=N)N)C(=O)N[C@@H](CCC(N)=O)C(=O)N(C)[C@@H](CCCNC(=N)N)C(=O)N[C@@H](Cc4ccc(O)cc4)C(N)=O)[C@@H](C)O)C(C)C)c(=O)c3c2)CC1` [Example 6], the 50% effective concentration (EC50) on Y1R amounted to 5200 nM; on Y4R, 2470 nM; at Y5R it was 99900 nM; on hNPY2R [1], 1.7 nM; at hNPY2R [2], 1.45 nM.

In the case of `CCCCCCCCCCCCCCCC(=O)N[C@@H](CCC(=O)O)C(=O)NCCCC[C@H](NC(=O)[C@@H](N)[C@@H](C)CC)C(=O)N1CCN(c2ccc3ncn(CC(=O)N[C@@H](CCCNC(=N)N)C(=O)N[C@@H](Cc4c[nH]cn4)C(=O)N[C@@H](Cc4ccc(O)cc4)C(=O)N[C@@H](CC(C)C)C(=O)N[C@@H](CC(N)=O)C(=O)N[C@@H](Cc4c[nH]c5ccccc45)C(=O)N[C@H](C(=O)N[C@H](C(=O)N[C@@H](CCCNC(=N)N)C(=O)N[C@@H](CCC(N)=O)C(=O)N(C)[C@@H](CCCNC(=N)N)C(=O)N[C@@H](Cc4ccc(O)cc4)C(N)=O)[C@@H](C)O)C(C)C)c(=O)c3c2)CC1` [Example 21], the concentration for a half-maximal effect (EC50) at Y1R was greater than 5000 nM; at Y4R, greater than 5000 nM; on Y5R, 4180 nM; on hNPY2R [1], 1 nM; on hNPY2R [2], 0.43 nM.

Turning to `CCCCCCCCCCCCCCCC(=O)NCCCCCC(=O)NCCCC[C@H](NC(=O)[C@@H](N)[C@@H](C)CC)C(=O)N1CCN(c2ccc3ncn(CC(=O)N[C@@H](CCCNC(=N)N)C(=O)N[C@@H](Cc4c[nH]cn4)C(=O)N[C@@H](Cc4ccc(O)cc4)C(=O)N[C@@H](CC(C)C)C(=O)N[C@@H](CC(N)=O)C(=O)N[C@@H](Cc4c[nH]c5ccccc45)C(=O)N[C@H](C(=O)N[C@H](C(=O)N[C@@H](CCCNC(=N)N)C(=O)N[C@@H](CCC(N)=O)C(=O)N[C@@H](CCCNC(=N)N)C(=O)N[C@@H](Cc4ccc(O)cc4)C(N)=O)[C@@H](C)O)C(C)C)c(=O)c3c2)CC1` [Example 19], the EC50 was greater than 5000 nM at Y1R; greater than 5000 nM on Y4R; 45 nM at Y5R; 0.15 nM at hNPY2R [1]; 0.004 nM on hNPY2R [2].

Turning to `CCCCCCCCCCCCCCCC(=O)N[C@H](C(=O)N[C@H](C(=O)NCCCC[C@H](NC(=O)[C@@H](N)[C@@H](C)CC)C(=O)N1CCN(c2ccc3ncn(CC(=O)N[C@@H](CCCNC(=N)N)C(=O)N[C@@H](Cc4c[nH]cn4)C(=O)N[C@@H](Cc4ccc(O)cc4)C(=O)N[C@@H](CC(C)C)C(=O)N[C@@H](CC(N)=O)C(=O)N[C@@H](Cc4c[nH]c5ccccc45)C(=O)N[C@H](C(=O)N[C@H](C(=O)N[C@@H](CCCNC(=N)N)C(=O)N[C@@H](CCC(N)=O)C(=O)N(C)[C@@H](CCCNC(=N)N)C(=O)N[C@@H](Cc4ccc(O)cc4)C(N)=O)[C@@H](C)O)C(C)C)c(=O)c3c2)CC1)[C@@H](C)O)[C@@H](C)O` [Example 42], the concentration giving a half-maximal response (EC50) at Y1R is greater than 5000 nM; at Y4R, greater than 5000 nM; at Y5R, 193 nM; at hNPY2R [1], 0.14 nM; at hNPY2R [2], 0.018 nM. Further, the Emax at Y5R came out at 46%.

For the compound `CCCCCCCCCCCCCCCC(=O)NCCC(=O)N[C@@H](CCC(=O)O)C(=O)NCCCC[C@H](NC(=O)[C@@H](N)[C@@H](C)CC)C(=O)N1CCN(c2ccc3ncn(CC(=O)N[C@@H](CCCNC(=N)N)C(=O)N[C@@H](Cc4c[nH]cn4)C(=O)N[C@@H](Cc4ccc(O)cc4)C(=O)N[C@@H](CC(C)C)C(=O)N[C@@H](CC(N)=O)C(=O)N[C@@H](Cc4c[nH]c5ccccc45)C(=O)N[C@H](C(=O)N[C@H](C(=O)N[C@@H](CCCNC(=N)N)C(=O)N[C@@H](CCC(N)=O)C(=O)N(C)[C@@H](CCCNC(=N)N)C(=O)N[C@@H](Cc4ccc(O)cc4)C(N)=O)[C@@H](C)O)C(C)C)c(=O)c3c2)CC1` [Example 22], on Y5R, the Emax was 70%.

The values above are taken from US20100179093A1, “Neoropeptide-2-Receptor (Y-2R) Agonists” (priority 2008, published 2010).
